Test results from ChEMBL document CHEMBL1157075, “Antiangiogenic metabolites from a marine-derived fungus, Hypocrea vinosa” (J Nat Prod, 2010).
The source made the active and inactive calls. The calls are words filed in the database; no cut-off is given here.

How the values were obtained:
[1] = tested on: NHDF; assay: Cytotoxicity against NHDF after 72 hrs by WST8 assay; type: cell-based; conditions: Homo sapiens
[2] = tested on: HUVEC; assay: Inhibition of protein tyrosine kinase in HUVEC lysates at 100 ug/ml after 2 hrs; type: cell-based; conditions: Homo sapiens
[3] = Inhibition of protein tyrosine kinase in HUVEC lysates after 2 hrs; type: cell-based, Homo sapiens
[4] = tested on: HUVEC; assay: Antiproliferative activity against HUVEC after 72 hrs by MTT assay; type: cell-based; conditions: Homo sapiens
[5] = tested on: NHDF; assay: Antiangiogenic activity against NHDF assessed as inhibition VEGF-stimulated tubule formation at 10 ug/ml after 11 days by microscopy; type: functional, cell-based; conditions: Homo sapiens
[6] = tested on: HUVEC; assay: Inhibition of VEGF-induced HUVEC migration after 22 hrs by microscopy; type: functional, cell-based; conditions: Homo sapiens
[7] = tested on: HUVEC; assay: Inhibition of protein tyrosine kinase in HUVEC lysates at 10 ug/ml after 2 hrs; type: cell-based; conditions: Homo sapiens
[8] = tested on: HUVEC; assay: Inhibition of VEGF-induced HUVEC migration at 0.1 ug/ml after 22 hrs by microscopy; type: functional; conditions: Homo sapiens
[9] = tested on: HUVEC; assay: Inhibition of VEGF-induced HUVEC migration at 1 ug/ml after 22 hrs by microscopy; type: functional; conditions: Homo sapiens
[10] = tested on: HUVEC; assay: Inhibition of VEGF-induced HUVEC migration at 10 ug/ml after 22 hrs by microscopy; type: functional; conditions: Homo sapiens
[11] = tested on: HUVEC; assay: Antiangiogenic activity against HUVEC assessed as inhibition VEGF-stimulated tubule formation at 10 ug/ml after 11 days by microscopy; type: functional, cell-based; conditions: Homo sapiens
[12] = tested on: HUVEC; assay: Inhibition of protein tyrosine kinase in HUVEC lysates at 1 ug/ml after 2 hrs; type: cell-based; conditions: Homo sapiens
[13] = tested on: HeLa; assay: Cytotoxicity against human HeLa cells after 72 hrs by WST8 assay; type: functional, cell-based
[14] = species on record: Mus musculus; assay: Toxicity in mouse assessed as reduction of body weight; type: organism-based; conditions: in vivo
[15] = tested on: P388; assay: Antitumor activity against mouse P388 cells xenografted in mouse; type: functional
[16] = tested on: Mus musculus; assay: Toxicity in mouse at 60 mg/kg; type: organism-based; set-up: dose 60 mg/kg; conditions: in vivo
[17] = tested on: P388; assay: Antitumor activity against mouse P388 cells xenografted in mouse at 20 mg/kg; type: functional, organism-based; set-up: dose 20 mg/kg

SMILES	inhibition [2] [%]	IC50 [3] [µM]	IC50 [4] [µM]	inhibition [5]	IC50 [6] [µM]	inhibition [7] [%]	inhibition at 0.1 µg/mL [8] [%]	inhibition at 1 µg/mL [9] [%]	inhibition at 10 µg/mL [10] [%]	inhibition [11]	inhibition [12] [%]	Activity [14]	Activity [15]	other results
CC(=O)Cc1cc(=O)c2c(O)c3c(O)cc(O)c(-c4c(O)cc(O)c5c(O)c6c(=O)cc(CC(C)=O)oc6cc45)c3cc2o1	66.2	42.1	17.4	Active	1.09	38.3	20	57.8	86.7	Active	11			IC50 [1]: > 500 µM; IC50 [13]: 209 µM
CC(=O)Cc1cc(=O)c2c(O)c3c(O)cc(O)c(-c4c(O)cc(O)c5c(O)c6c(=O)cc(C)oc6cc45)c3cc2o1 [HYPOCHROMIN B]	72.4	18	13.1	Active	1.51	50	33.3	53.3	95.6	Active	12.4			
CC1CC(=O)c2c(cc3c(-c4c(O)cc(O)c5c(O)c6c(cc45)O[C@H](C)[C@@H](C)C6=O)c(O)cc(O)c3c2O)O1 (stereo not given in full) [CHAETOCHROMIN C]												Toxic	Active	
Cc1oc2cc3c(-c4c(O)cc(O)c5c(O)c6c(cc45)O[C@@H](C)[C@H](C)C6=O)c(O)cc(O)c3c(O)c2c(=O)c1C [CHAETOCHROMIN D]												Toxic	Active	
Cc1cc(=O)c2c(O)c3c(O)cc(O)c(-c4c(O)cc(O)c5c(O)c6c(=O)cc(C)oc6cc45)c3cc2o1 [USTILAGINOIDIN A]														Activity [16]: Toxic
CC(=O)Cc1cc(=O)c2c(O)c3c(O)cc(O)c(-c4c(O)cc(O)c5c(O)c6c(=O)cc(CC(C)O)oc6cc45)c3cc2o1 (stereo not given) [HYPOCHROMIN A]	73.4	58.7	50	Active	0.87	21.9	28.9	62.2	100	Active	0			
Cc1cc(=O)c2c(O)c3c(O)cc(O)c(-c4c(O)cc(O)c5c(O)c6c(cc45)OC(C)CC6=O)c3cc2o1 (stereo not given) [USTILAGINOIDIN G]												Toxic	Active	
C[C@H]1Oc2cc3c(-c4c(O)cc(O)c5c(O)c6c(cc45)O[C@H](C)[C@@H](C)C6=O)c(O)cc(O)c3c(O)c2C(=O)[C@@H]1C														Activity [17]: Active
C[C@@H]1Oc2cc3c(-c4c(O)cc(O)c5c(O)c6c(cc45)O[C@H](C)[C@@H](C)C6=O)c(O)cc(O)c3c(O)c2C(=O)[C@@H]1C [CHAETOCHROMIN B]												Toxic	Active	
